{"source": "patent US8367087B2", "about": "“Soil amendment compositions and methods for using the same” (priority 1998, dated 2013)", "system": "J2 larvae of the Root Knot Nematode (Meloidogyne incognita)", "test": "Touch response of J2 larvae after 24 hours exposure to predisposing agents", "format": "in vivo", "description": "The merits of alternative predisposing agents were examined by subjecting J2 larvae of the Root Knot Nematode (Meloidogyne incognita) to solutions of lignosulfonate and gallic acid. J2 larvae were exposed 24 hours to various concentrations of the materials in shallow 50 ml beakers. Following exposure, nematodes were inspected for activity level using touch response: […]"}
{"compound": "O=C(O)c1cc(O)c(O)c(O)c1", "note": "[Gal Ac, Gallic Acid]", "values": [{"measurement": "Control %", "setting": "5 ppm", "value": 30.7, "unit": "%"}, {"measurement": "active, responding nematodes per total examined (viable/total), Mean", "setting": "5 ppm", "value": "312/450"}, {"measurement": "active, responding nematodes per total examined (viable/total), Replication 1", "setting": "5 ppm", "value": "305/462"}, {"measurement": "active, responding nematodes per total examined (viable/total), Replication 2", "setting": "5 ppm", "value": "316/440"}, {"measurement": "active, responding nematodes per total examined (viable/total), Replication 3", "setting": "5 ppm", "value": "326/447"}, {"measurement": "active, responding nematodes per total examined (viable/total), Replication 4", "setting": "5 ppm", "value": "302/450"}, {"measurement": "active, responding nematodes per total examined (viable/total), Total", "setting": "5 ppm", "value": "1249/1799"}, {"measurement": "Control %", "setting": "25 ppm", "value": 47.7, "unit": "%"}, {"measurement": "active, responding nematodes per total examined (viable/total), Mean", "setting": "25 ppm", "value": "239/457"}, {"measurement": "active, responding nematodes per total examined (viable/total), Replication 1", "setting": "25 ppm", "value": "250/458"}, {"measurement": "active, responding nematodes per total examined (viable/total), Replication 2", "setting": "25 ppm", "value": "248/449"}, {"measurement": "active, responding nematodes per total examined (viable/total), Replication 3", "setting": "25 ppm", "value": "232/459"}, {"measurement": "active, responding nematodes per total examined (viable/total), Replication 4", "setting": "25 ppm", "value": "225/462"}, {"measurement": "active, responding nematodes per total examined (viable/total), Total", "setting": "25 ppm", "value": "955/1828"}, {"measurement": "Control %", "setting": "100 ppm", "value": 60.9, "unit": "%"}, {"measurement": "active, responding nematodes per total examined (viable/total), Mean", "setting": "100 ppm", "value": "176/450"}, {"measurement": "active, responding nematodes per total examined (viable/total), Replication 1", "setting": "100 ppm", "value": "193/450"}, {"measurement": "active, responding nematodes per total examined (viable/total), Replication 2", "setting": "100 ppm", "value": "185/448"}, {"measurement": "active, responding nematodes per total examined (viable/total), Replication 3", "setting": "100 ppm", "value": "176/436"}, {"measurement": "active, responding nematodes per total examined (viable/total), Replication 4", "setting": "100 ppm", "value": "150/464"}, {"measurement": "active, responding nematodes per total examined (viable/total), Total", "setting": "100 ppm", "value": "704/1798"}, {"measurement": "Control %", "setting": "1000 ppm", "value": 92.7, "unit": "%"}, {"measurement": "active, responding nematodes per total examined (viable/total), Mean", "setting": "1000 ppm", "value": "33/452"}, {"measurement": "active, responding nematodes per total examined (viable/total), Replication 1", "setting": "1000 ppm", "value": "25/449"}, {"measurement": "active, responding nematodes per total examined (viable/total), Replication 2", "setting": "1000 ppm", "value": "39/444"}, {"measurement": "active, responding nematodes per total examined (viable/total), Replication 3", "setting": "1000 ppm", "value": "40/454"}, {"measurement": "active, responding nematodes per total examined (viable/total), Replication 4", "setting": "1000 ppm", "value": "27/460"}, {"measurement": "active, responding nematodes per total examined (viable/total), Total", "setting": "1000 ppm", "value": "131/1807"}]}
